Data as given in PubChem BioAssay AID270 (DTP/NCI, 2004).
Several values for one entry are separate records, joined by “and”; a condition that tells them apart may be missing. Equal values may be shown once. Results filed as inconclusive are left out.

Tested on: BDF1 mice, s.c. Lewis lung carcinoma, T/C %
Test: NCI In Vivo Anticancer Drug Screen. Data for tumor model Lewis Lung Carcinoma (subcutaneous) in B6D2F1 (BDF1) mice
Description: The antitumor activity of compounds was measured in mice bearing transplantable tumors. Survival or tumor size were measured and the results are expressed as the measurement made in the treated group (T) divided by the measurement made in the vehicle treated control group (C). The tumor model used in this assay is Lewis Lung Carcinoma (subcutaneous) in B6D2F1 (BDF1) mice

In the case of `O=NN(CCCl)C(=O)NC1CCC(=O)NC1=O` (stereo unspecified), the T/C (endpoint: median survival time, dose: 0.5 mg/kg/injection, schedule: Q01DX009 (ip), vehicle: Klucel (hydroxypropylcellulose) (HPC), higher = longer survival) is reported as 107 % of control and 110 % of control, the T/C (endpoint: median survival time, dose: 1.0 mg/kg/injection, schedule: Q01DX009 (ip), vehicle: Klucel (hydroxypropylcellulose) (HPC), higher = longer survival) is reported as 100 % of control and 105 % of control and the T/C (endpoint: median survival time, dose: 1.25 mg/kg/injection, schedule: Q01DX009 (ip), vehicle: other, higher = longer survival) is reported as 122 % of control. For the same molecule, the T/C (endpoint: median survival time, dose: 2.0 mg/kg/injection, schedule: Q01DX009 (ip), vehicle: Klucel (hydroxypropylcellulose) (HPC), higher = longer survival) was 101 % of control and 117 % of control, the T/C (endpoint: median survival time, dose: 2.0 mg/kg/injection, schedule: Q02DX009 (ip), vehicle: saline with Tween-80, higher = longer survival) was 90 % of control and the T/C (endpoint: median survival time, dose: 3.0 mg/kg/injection, schedule: Q02DX009 (ip), vehicle: saline with Tween-80, higher = longer survival) was 93 % of control. The T/C (endpoint: median survival time, dose: 4.0 mg/kg/injection, schedule: Q01DX009 (ip), vehicle: Klucel (hydroxypropylcellulose) (HPC), higher = longer survival) was 182 % of control, the T/C (endpoint: median survival time, dose: 5.0 mg/kg/injection, schedule: Q01DX001 (ip), vehicle: gum acacia, higher = longer survival) was 89 % of control and the T/C (endpoint: median survival time, dose: 5.0 mg/kg/injection, schedule: Q01DX001 (ip), vehicle: other, higher = longer survival) was 120 % of control. For the same molecule, the T/C (endpoint: median survival time, dose: 5.0 mg/kg/injection, schedule: Q01DX001 (ip), vehicle: saline, higher = longer survival) was 96 % of control, the T/C (endpoint: median survival time, dose: 6.0 mg/kg/injection, schedule: Q04DX003 (ip), vehicle: saline with Tween-80, higher = longer survival) was 93 % of control and the T/C (endpoint: median survival time, dose: 10.0 mg/kg/injection, schedule: Q01DX001 (ip), vehicle: other, higher = longer survival) was 107 % of control and 124 % of control. The T/C (endpoint: median survival time, dose: 10.0 mg/kg/injection, schedule: Q01DX001 (ip), vehicle: saline with Tween-80, higher = longer survival) was 111 % of control, the T/C (endpoint: median survival time, dose: 10.0 mg/kg/injection, schedule: Q01DX001 (ip), vehicle: saline, higher = longer survival) was 101 % of control and the T/C (endpoint: median survival time, dose: 10.0 mg/kg/injection, schedule: Q04DX003 (ip), vehicle: saline with Tween-80, higher = longer survival) was 120 % of control. The T/C (endpoint: median survival time, dose: 15.0 mg/kg/injection, schedule: Q01DX001 (ip), vehicle: saline with Tween-80, higher = longer survival) was 108 % of control, the T/C (endpoint: median survival time, dose: 22.5 mg/kg/injection, schedule: Q01DX001 (ip), vehicle: saline with Tween-80, higher = longer survival) was 208 % of control and the T/C (endpoint: median survival time, dose: 26.0 mg/kg/injection, schedule: Q01DX001 (ip), vehicle: gum acacia, higher = longer survival) was 168 % of control. For the same molecule, the T/C (endpoint: median survival time, dose: 40.0 mg/kg/injection, schedule: Q01DX001 (ip), vehicle: saline, higher = longer survival) was 156 % of control, the T/C (endpoint: median tumor weight (est.), dose: 7.6 mg/kg/injection, schedule: Q01DX001 (ip), vehicle: gum acacia, higher = larger tumour) was 93 % of control and the T/C (endpoint: median tumor weight (est.), dose: 15.0 mg/kg/injection, schedule: Q01DX001 (ip), vehicle: gum acacia, higher = larger tumour) was 10 % of control.

With `CN(N=O)C(N)=O` the T/C (endpoint: mean tumor weight, dose: 2.5 mg/kg/injection, schedule: Q01DX011 (ip), vehicle: saline, higher = larger tumour) was 78 % of control, the T/C (endpoint: mean tumor weight, dose: 5.0 mg/kg/injection, schedule: Q01DX011 (ip), vehicle: saline, higher = larger tumour) was 77 % of control and the T/C (endpoint: mean tumor weight, dose: 10.0 mg/kg/injection, schedule: Q01DX011 (ip), vehicle: saline, higher = larger tumour) was 57 % of control. For the same molecule, the T/C (endpoint: mean tumor weight, dose: 20.0 mg/kg/injection, schedule: Q01DX011 (ip), vehicle: saline, higher = larger tumour) was 20 % of control.

In the case of `CC(C)=CCC(OC(=O)C=C(C)C)C1=CC(=O)c2c(O)ccc(O)c2C1=O` (stereo unspecified), the T/C (endpoint: median survival time, dose: 6.25 mg/kg/injection, schedule: Q01DX009 (ip), vehicle: Klucel (hydroxypropylcellulose) (HPC), higher = longer survival) is reported as 104 % of control, the T/C (endpoint: median survival time, dose: 12.5 mg/kg/injection, schedule: Q01DX009 (ip), vehicle: Klucel (hydroxypropylcellulose) (HPC), higher = longer survival) is reported as 88 % of control and the T/C (endpoint: median survival time, dose: 25.0 mg/kg/injection, schedule: Q01DX009 (ip), vehicle: Klucel (hydroxypropylcellulose) (HPC), higher = longer survival) is reported as 118 % of control.

For `CO[C@H]1/C=C/O[C@@]2(C)Oc3c(C)c(O)c4c(O)c(c(/C=N/N5C(C)CN(Cc6ccccc6)CC5C)c(O)c4c3C2=O)NC(=O)/C(C)=C\C=C\[C@H](C)[C@H](O)[C@@H](C)[C@@H](O)[C@@H](C)[C@H](OC(C)=O)[C@@H]1C` (stereo partly specified), the T/C (endpoint: mean tumor weight, dose: 50.0 mg/kg/injection, schedule: Q01DX009 (ip), vehicle: saline with Tween-80, higher = larger tumour) was 112 % of control, the T/C (endpoint: mean tumor weight, dose: 100.0 mg/kg/injection, schedule: Q01DX009 (ip), vehicle: saline with Tween-80, higher = larger tumour) was 93 % of control and the T/C (endpoint: mean tumor weight, dose: 200.0 mg/kg/injection, schedule: Q01DX009 (ip), vehicle: saline with Tween-80, higher = larger tumour) was 65 % of control. The T/C (endpoint: mean tumor weight, dose: 400.0 mg/kg/injection, schedule: Q01DX009 (ip), vehicle: saline with Tween-80, higher = larger tumour) was 47 % of control, the T/C (endpoint: median survival time, dose: 1.6 mg/kg/injection, schedule: Q02DX Z (oral), vehicle: Klucel (hydroxypropylcellulose) (HPC), higher = longer survival) was 95 % of control and the T/C (endpoint: median survival time, dose: 3.12 mg/kg/injection, schedule: Q02DX Z (oral), vehicle: Klucel (hydroxypropylcellulose) (HPC), higher = longer survival) was 91 % of control. For the same molecule, the T/C (endpoint: median survival time, dose: 12.5 mg/kg/injection, schedule: Q02DX Z (oral), vehicle: Klucel (hydroxypropylcellulose) (HPC), higher = longer survival) was 87 % of control, the T/C (endpoint: median survival time, dose: 25.0 mg/kg/injection, schedule: Q02DX Z (oral), vehicle: Klucel (hydroxypropylcellulose) (HPC), higher = longer survival) was 91 % of control and the T/C (endpoint: median survival time, dose: 50.0 mg/kg/injection, schedule: Q02DX Z (oral), vehicle: Klucel (hydroxypropylcellulose) (HPC), higher = longer survival) was 95 % of control. The T/C (endpoint: median survival time, dose: 100.0 mg/kg/injection, schedule: Q01DX009 (ip), vehicle: saline with Tween-80, higher = longer survival) was 112 % of control, the T/C (endpoint: median survival time, dose: 100.0 mg/kg/injection, schedule: Q02DX Z (oral), vehicle: Klucel (hydroxypropylcellulose) (HPC), higher = longer survival) was 94 % of control and the T/C (endpoint: median survival time, dose: 200.0 mg/kg/injection, schedule: Q01DX009 (ip), vehicle: saline with Tween-80, higher = longer survival) was 100 % of control. The T/C (endpoint: median survival time, dose: 200.0 mg/kg/injection, schedule: Q02DX Z (oral), vehicle: Klucel (hydroxypropylcellulose) (HPC), higher = longer survival) was 102 % of control.
